Data as given in US20220096529A1, “2-HYDROXYPROPYL-BETA-CYCLODEXTRIN (HPBETACD) FOR USE IN THE TREATMENT OF BREAST CANCER” (UNIVERSITY OF THE WITWATERSRAND, JOHANNESBURG, priority 2019, published 2022).

Tests used:
Assay type in all cases: cell-based, human
MDA-MB-231 cells [1] = assay: Mitochondrial outer membrane potential assay (MOMP); conditions: MDA-MB-231, 10 mM, 24 hrs
Description: (§1) One of the key hallmarks of apoptosis is the loss of mitochondrial membrane potential. To investigate that aspect we did a MOMP assay which validates our Cell-APOPercentage assay. This assay was tested on three cell lines MCF7, MDA-MB-231 & MRC-5. The top right and bottom hand quadrants of each plot represents healthy (FL2-A) and apoptotic (FL1-A) cells respectively (see FIGS. 13 to 15).
(§2) From the results obtained from MTT (IC50 values) and Cell-APOPercentage assays it was quite evident that ˜10 mM HPβCD caused cellular growth inhibition through apoptosis in cancer cells and had little or no effect in normal cells. Therefore, we selected just 10 mM HPβCD going forward as the only working concentration for HPβCD treatment. 24 hrs time point was selected (HPβCD & 10 mM H2O2) because mitochondrial membrane potential loss is an early cellular event.

MCF7 cells [2] = assay: as above; conditions: MCF7, 10 mM, 24 hrs
Description: as §1, §2

MRC-5 cells = assay: ROS assay; conditions: MRC-5, 10 mM, 24 hrs
Description: (§3) To further validate the occurrence of apoptosis and to investigate the exact mechanisms if apoptosis, a ROS assay was conducted to capture the production of ROS. […] In order to be in solidarity with this fact, a ROS assay was performed in three cell lines: MCF7, MDA-MB-231 & MRC-5. Like before, HPβCD and the positive (10 mM H2O2) were treated for 24 hrs. The right hand section in each plot represents the production of ROS.

MDA-MB-231 cells [3] = assay: ROS assay; conditions: MDA-MB-231, 10 mM, 24 hrs
Description: as §3

MCF7 cells [4] = assay: ROS assay; conditions: MCF7, 10 mM, 24 hrs
Description: as §3

MDA-MB-231 cells [5] = assay: MTT growth inhibition assay; conditions: Homo sapiens, MDA-MB-231, 40 μM Plumbagin
Description: (§4) Cells were cultured in appropriate medium supplemented with 10% FCS, penicillin (100 U/ml), and streptomycin (100 μg/ml) (Gibco) at 5% CO2 in a 37° C. incubator.
(§5) Four different cell lines were used MCF7 (ER+). MDA-MB-231 (ER−), MRC-5 (Lung Fibroblasts) and HEK-293 (Embryonic kidney). MRC-5 and/or HEK-293 were used as control cell lines depending on availability.
(§6) In order to determine whether HPβCD has the ability to induce cancer cell death a primary screening using an MTT assay was performed. Three different time points 24 hrs.

MCF7 cells [6] = assay: MTT growth inhibition assay; conditions: Homo sapiens, MCF7, 40 μM Plumbagin
Description: as §4, §5, §6

MDA-MB-231 cells [7] = assay: Cell-APOPercentage apoptosis assay; conditions: MDA-MB-231, 10 μM Plumbagin, 24 hrs
Description: (§7) APOPercentage assays gives a measure of overall apoptosis in the cell. Apoptosis is an early event and therefore just one time point (24 hrs) was selected and tested on four cell lines MCF7, MDA-MB-231, MRC-5 & HEK-293 cells. 10 μM Plumbagin was used a positive control as opposed to 40 μM from MTT because higher concentrations of plumbagin was way too toxic for the cells and to capture the early activity, optimal dosage was required. To confirm the growth inhibition obtained from the MTT assay was actually due to apoptosis, a Cell-APOPercentage Apoptosis assay was performed according to known methods.

MCF7 cells [8] = assay: Cell-APOPercentage apoptosis assay; conditions: MCF7, 10 μM Plumbagin, 24 hrs
Description: as §7

MDA-MB-231 cells [9] = assay: Caspase 3/7 assay; conditions: MDA-MB-231, 40 μM Plumbagin, 24 hrs
Description: (§8) The final step in apoptosis following the intrinsic pathway is the activation of executioner caspases like caspase 3 and caspase 7 […]. Therefore, to confirm that cell death was due to the mitochondrial mediated pathway of apoptosis a Caspase 3/7 assay was conducted. Caspases are activated in response to a myriad of cellular death stimuli and they dismantle the cell. Caspase 3 and caspase 7 contribute to the majority of proteolytic cleavage occurring in apoptosis. As a final step to confirm and validate apoptosis via the mitochondrial intrinsic pathway, the Caspase 3/7 assay was conducted on three cell lines: MCF7, MDA-MB-231 & HEK-293. HPβCD and positive (40 μM PL) were treated for 24 hrs. The percentage of dead/apoptotic cells are clearly indicated in specific corners of each quadrants in the above plots.

HEK-293 cells = assay: Caspase 3/7 assay; conditions: HEK-293, 40 μM Plumbagin, 24 hrs
Description: as §8

MCF7 cells [10] = assay: Caspase 3/7 assay; conditions: MCF7, 40 μM Plumbagin, 24 hrs
Description: as §8

| SMILES | apoptotic cells / cell death (loss of mitochondrial membrane potential) (MDA-MB-231 cells [1]) [%] | apoptotic population (loss of mitochondrial membrane potential) (MCF7 cells [2]) [%] | ROS generation (MRC-5 cells) [%] | ROS generation (MDA-MB-231 cells [3]) [%] | ROS generation (MCF7 cells [4]) [%] | inhibition at 40 µM (MDA-MB-231 cells [5]; 24 hrs) [%] | inhibition at 40 µM (MDA-MB-231 cells [5]; 48 hrs) [%] | inhibition at 40 µM (MDA-MB-231 cells [5]; 72 hrs) [%] | inhibition at 40 µM (MCF7 cells [6]; 24 hrs) [%] | inhibition at 40 µM (MCF7 cells [6]; 48 hrs) [%] | inhibition at 40 µM (MCF7 cells [6]; 72 hrs) [%] | apoptosis (MDA-MB-231 cells [7]) [%] | apoptosis (MCF7 cells [8]) [%] | Total Apoptotic (caspase 3/7) (MDA-MB-231 cells [9]) [%] | Total Apoptotic (caspase 3/7) (HEK-293 cells) [%] | Total Apoptotic (caspase 3/7) (HEK-293 cells; listed as PL) [%] | Total Apoptotic (caspase 3/7) (MCF7 cells [10]) [%] |
| --- | --- | --- | --- | --- | --- | --- | --- | --- | --- | --- | --- | --- | --- | --- | --- | --- | --- |
| OO [H2O2, reference compound] | 92.4 | 92.1 | 64.1 | 73 | 88.5 | – | – | – | – | – | – | – | – | – | – | – | – |
| CC1=CC(=O)c2c(O)cccc2C1=O [Plumbagin, reference compound] | – | – | – | – | – | ~85 | ~92 | ~95 | ~80 | ~90 | ~100 | ~90 | ~90 | 80.45 | 72.40 | 72.4 | 23.55 |
